Measured values taken from US20110136792A1, “NOVEL CARBOXYLIC ACID ANALOGS AS GLYCOGEN SYNTHASE ACTIVATORS” (priority 2009, published 2011).

System: glycogen synthase
Test: Glycogen Synthase (GS) Assay
Format: biochemical
Conditions: coupled pyruvate kinase/lactate dehydrogenase assay, absorbance at 340 nm; for EC50: compound concentration needed to give 50% maximum activation; for GS SC200: compound concentration needed to stimulate 200% of the enzyme activity
Procedure: The following tests were carried out in order to determine the activity of the compounds of formula (I).
Twelve μL per well of substrate solution containing glycogen (4.32 mg/ml), 2.67 mM UDP-glucose, 21.6 mM phospho(enol)pyruvate and 2.7 mM NADH in 30 mM glycylglycine, pH 7.3 buffer was added into a polystyrene 384-well assay plate (BD Biosciences).
Compound solutions (8 μL/well) at various concentrations (0-300 μM) were added to the assay plate (columns 5-24). Compound solution contains 30 mM glycylglycine, pH 7.3, 40 mM KCl, 20 mM MgCl2, 9.2% DMSO, with (columns 15-24) or without (columns 5-14) 20 mM glucose 6-phosphate.
Enzyme solution (12 μL/well) containing glycogen synthase (16.88 μg/ml), pyruvate kinase (0.27 mg/ml), lactate dehydrogenase (0.27 mg/ml) in 50 mM Tris-HCl, pH 8.0, 27 mM DTT and bovine serum albumin (BSA, 0.2 mg/ml) was added to the assay plate (columns 3-24). As a blank control, enzyme solution without glycogen synthase was added into the top half wells of columns 1-2. To the bottom half wells of columns 1-2 were added a known activator, glucose 6-phosphate (at final concentration 5 mM) in addition to the enzyme solution. The reaction mixture was incubated at room temperature. The assay plate was then read for absorbance at 340 nm on an Envision reader every 3 minutes up to a total of 15 minutes.
The enzyme activity (with or without compound) was calculated by the reaction rate and represented by the optical density change (δOD) per minute. Percent stimulation of glycogen synthase activity by a compound at various concentrations was calculated by the following formula: […]
Where Rs is the reaction rate of the enzyme in the presence of compound and Rt is the reaction rate of the enzyme in the absence of compound.
SC200 is defined as the compound concentration that is needed to stimulate 200% of the enzyme activity. EC50 is defined as the compound concentration that is needed to give 50% maximum activation.
Compounds from Examples 1 through Example 64 were assayed according to assay procedures described above and the result is listed in Table 1 below: […]

| EC50 | SMILES | GS SC200 |
| --- | --- | --- |
| 290 nM | COc1cc(F)c(F)cc1-c1ccc(OCc2cccc(CN(CC(=O)O)S(C)(=O)=O)c2)cc1 [Example 10, {[3-(4′,5′-Difluoro-2′-methoxy-biphenyl-4-yloxymethyl)-benzyl]-methanesulfonyl-amino}-acetic acid] | 0.03 µM |
| 180 nM | O=C(O)C1CCS(=O)(=O)N1Cc1cc(COc2ccc(-c3ccc(F)cc3F)cc2)ccc1F (centres unmarked) [Example 42, 2-[5-(2′,4′-Difluoro-biphenyl-4-yloxymethyl)-2-fluoro-benzyl]-1,1-dioxo-1lambda*6*-isothiazolidine-3-carboxylic acid] | 0.06 µM |
| 1820 nM | COC(=O)N(CC(=O)O)Cc1cccc(COc2ccc(-c3cc(F)c(F)cc3OC)cc2)c1 [Example 19, {[3-(4′,5′-Difluoro-2′-methoxy-biphenyl-4-yloxymethyl)-benzyl]-methoxycarbonyl-amino}-acetic acid] | 0.42 µM |
| 180 nM | Cc1cc(F)c(F)cc1-c1ccc(OCc2cccc(CN3C(C(=O)O)CCS3(=O)=O)c2)cc1 (racemic) [Example 39, 2-[3-(4′,5′-Difluoro-2′-methyl-biphenyl-4-yloxymethyl)-benzyl]-1,1-dioxo-1lambda*6*-isothiazolidine-3-carboxylic acid] | 0.03 µM |
| 260 nM | COc1cc(F)c(F)cc1-c1ccc(OCc2cccc(CN(CC(=O)O)C(=O)C3CC3)c2)cc1 [Example 22, {Cyclopropanecarbonyl-[3-(4′,5′-difluoro-2′-methoxy-biphenyl-4-yloxymethyl)-benzyl]-amino}-acetic acid] | 0.03 µM |
| 610 nM | COc1cc(F)c(F)cc1-c1ccc(OCc2cccc(CN(CC(=O)O)C(=O)C3CCN(C)CC3)c2)cc1 [Example 32, [[3-(4′,5′-Difluoro-2′-methoxy-biphenyl-4-yloxymethyl)-benzyl]-(1-methyl-piperidine-4-carbonyl)-amino]-acetic acid] | 0.07 µM |
| 60 nM | O=C(O)[C@@H]1CCCS(=O)(=O)N1Cc1cccc(COc2ccc(-c3cc(F)c(F)cc3F)cc2)c1 [Example 58, (S)-1,1-Dioxo-2-[3-(2′,4′,5′-trifluoro-biphenyl-4-yloxymethyl)-benzyl]-1lambda*6*-[1,2]thiazinane-3-carboxylic acid] | 0.04 µM |
| 430 nM | COc1cc(F)c(F)cc1-c1ccc(OCc2nc(CN3[C@H](C(=O)O)CCS3(=O)=O)cs2)cc1 [Example 62, (S)-2-[2-(4′,5′-Difluoro-2′-methoxy-biphenyl-4-yloxymethyl)-thiazol-4-ylmethyl]-1,1-dioxo-1lambda*6*-isothiazolidine-3-carboxylic acid] | 0.26 µM |
| 1310 nM | Cn1ccnc1C(=O)N(CC(=O)O)Cc1cccc(COc2ccc(-c3ccc(F)cc3F)cc2)c1 [Example 14, [[3-(2′,4′-Difluoro-biphenyl-4-yloxymethyl)-benzyl]-(1-methyl-imidazole-2-carbonyl)-amino]-acetic acid] | 0.15 µM |
| 1430 nM | O=C(O)CN(Cc1cccc(COc2ccc(-c3ccc(F)cc3F)cc2)c1)C(=O)c1cccnc1 [Example 15, [[3-(2′,4′-Difluoro-biphenyl-4-yloxymethyl)-benzyl]-(pyridine-3-carbonyl)-amino]-acetic acid] | 0.15 µM |
| 280 nM | COc1cc(F)c(F)cc1-c1ccc(OCc2cccc(CN(CC(=O)O)C(=O)C3CCOC3)c2)cc1 (centres unmarked) [Example 34, [[3-(4′,5′-Difluoro-2′-methoxy-biphenyl-4-yloxymethyl)-benzyl]-(tetrahydro-furan-3-carbonyl)-amino]-acetic acid] | 0.04 µM |

More lines, now with the values behind:

| SMILES | EC50 | GS SC200 |
| --- | --- | --- |
| COCC(=O)N(CC(=O)O)Cc1cccc(COc2ccc(-c3cc(F)c(F)cc3OC)cc2)c1 [Example 28, [[3-(4′,5′-Difluoro-2′-methoxy-biphenyl-4-yloxymethyl)-benzyl]-(2-methoxy-acetyl)-amino]-acetic acid] | 410 nM | 0.06 µM |
| O=C(O)[C@H]1CCS(=O)(=O)N1Cc1cccc(COc2ccc(-c3cc(F)c(F)cc3F)cc2)c1 [Example 47, (R)-1,1-Dioxo-2-[3-(2′,4′,5′-trifluoro-biphenyl-4-yloxymethyl)-benzyl]-1lambda*6*-isothiazolidine-3-carboxylic acid] | 1820 nM | 0.62 µM |
| COc1cc(F)c(F)cc1-c1ccc(OCc2cccc(CN3C(=O)CC[C@H]3C(=O)O)c2)cc1 [Example 52, (S)-1-[3-(4′,5′-Difluoro-2′-methoxy-biphenyl-4-yloxymethyl)-benzyl]-5-oxo-pyrrolidine-2-carboxylic acid] | 120 nM | 0.02 µM |
| COc1cc(F)c(F)cc1-c1ccc(OCc2cccc(CN(CC(=O)O)C(=O)C(C)(C)C)c2)cc1 [Example 1, [[3-(4′,5′-Difluoro-2′-methoxy-biphenyl-4-yloxymethyl)-benzyl]-(2,2-dimethyl-propionyl)-amino]-acetic acid] | 1340 nM | 0.21 µM |
| COc1cc(F)c(F)cc1-c1ccc(OCc2cccc(CN(CC(=O)O)C(=O)c3ccccc3)c2)cc1 [Example 5, {Benzoyl-[3-(4′,5′-difluoro-2′-methoxy-biphenyl-4-yloxymethyl)-benzyl]-amino}-acetic acid] | 450 nM | 0.09 µM |
| O=C(O)CN(Cc1cccc(COc2ccc(-c3ccc(F)cc3F)cc2)c1)C(=O)N1CCOCC1 [Example 13, [[3-(2′,4′-Difluoro-biphenyl-4-yloxymethyl)-benzyl]-(morpholine-4-carbonyl)-amino]-acetic acid] | 930 nM | 0.10 µM |
| CCOC(=O)N(CC(=O)O)Cc1cccc(COc2ccc(-c3cc(F)c(F)cc3OC)cc2)c1 [Example 20, {[3-(4′,5′-Difluoro-2′-methoxy-biphenyl-4-yloxymethyl)-benzyl]-ethoxycarbonyl-amino}-acetic acid] | 5240 nM | 0.50 µM |
| O=C(O)[C@@H]1CCS(=O)(=O)N1Cc1cccc(COc2ccc(-c3cc(F)c(F)cc3F)cc2)c1 [Example 46, (S)-1,1-Dioxo-2-[3-(2′,4′,5′-trifluoro-biphenyl-4-yloxymethyl)-benzyl]-1lambda*6*-isothiazolidine-3-carboxylic acid] | 90 nM | 0.01 µM |
| CCS(=O)(=O)N(CC(=O)O)Cc1cccc(COc2ccc(-c3cc(F)c(F)cc3OC)cc2)c1 [Example 7, {[3-(4′,5′-Difluoro-2′-methoxy-biphenyl-4-yloxymethyl)-benzyl]-ethanesulfonyl-amino}-acetic acid] | 310 nM | 0.04 µM |
| CCN(CC(=O)O)Cc1cccc(COc2ccc(-c3cc(F)c(F)cc3OC)cc2)c1 [Example 36, {[3-(4′,5′-Difluoro-2′-methoxy-biphenyl-4-yloxymethyl)-benzyl]-ethyl-amino}-acetic acid] | 1930 nM | 0.50 µM |
| COc1cc(F)c(F)cc1-c1ccc(OCc2cccc(CN(CC(=O)O)S(=O)(=O)C3CC3)c2)cc1 [Example 9, {Cyclopropanesulfonyl-[3-(4′,5′-difluoro-2′-methoxy-biphenyl-4-yloxymethyl)-benzyl]-amino}-acetic acid] | 520 nM | 0.06 µM |
